Holding throughout (assay type): cell-based
In one test the target is T1, hGIPR (Homo sapiens, UniProt P48546).
T1 construct: expressed in transfected cells
T1 sequence (P48546 22-466): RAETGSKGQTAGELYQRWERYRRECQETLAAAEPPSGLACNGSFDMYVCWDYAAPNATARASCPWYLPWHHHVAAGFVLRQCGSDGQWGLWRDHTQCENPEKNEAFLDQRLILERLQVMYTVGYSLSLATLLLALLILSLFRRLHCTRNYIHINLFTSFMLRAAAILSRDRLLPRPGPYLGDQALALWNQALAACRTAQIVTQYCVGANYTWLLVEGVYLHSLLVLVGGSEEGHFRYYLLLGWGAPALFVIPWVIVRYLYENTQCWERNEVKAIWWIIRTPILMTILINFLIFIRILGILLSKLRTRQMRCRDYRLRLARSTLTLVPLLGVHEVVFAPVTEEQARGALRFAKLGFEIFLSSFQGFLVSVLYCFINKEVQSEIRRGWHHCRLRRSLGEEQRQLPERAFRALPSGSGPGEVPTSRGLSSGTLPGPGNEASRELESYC
Description: Functional cAMP formation (HTRF) in HEK-293 clonal cells expressing hGIPR, 0.1% bovine casein, without or with 1.0% human serum albumin. As to conditions: for Emax: percent of maximal response to GIP(1-42)NH2, read-out: hGIPR Emax, % ± SEM; for EC50: geometric mean, read-out: hGIPR EC50, nM (SEM, n). The method, boiled down: (§1)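 Cells were stimulated with peptide for 30 min at 37° C, then intracellular cAMP was measured by competitive HTRF (665/620 nm ratio) and converted to nM using a cAMP standard curve. Relative EC50 and Emax came from four-parameter logistic fits of percent maximal response against peptide concentration.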
A general note: Changes in cAMP serve as a functional read-out for many G protein-coupled receptors.

The target in another test is hGLP-1R (Homo sapiens, UniProt P43220). Description: Functional cAMP formation (HTRF) in HEK-293 clonal cells expressing hGLP-1R, 0.1% bovine casein, without or with 1.0% human serum albumin. Further details: expressed in transfected cells. As to conditions: for Emax: percent of maximal response to GLP-1(7-36)NH2, read-out: hGLP-1R Emax, % ± SEM; for EC50: geometric mean, read-out: hGLP-1R EC50, nM (SEM, n). The method, boiled down: as §1

The target of a further test is T2, hGCGR (Homo sapiens, UniProt P47871).
T2 construct: expressed in transfected cells
The test can be described thus: Functional cAMP formation (HTRF) in HEK-293 clonal cells expressing hGCGR, 0.1% bovine casein, without or with 1.0% human serum albumin. Conditions: read-out: hGCGR EC50, nM (SEM, n). The method, boiled down:
as §1

Where [1] appears, read: HEK293, cAMP, 37° C., 0.1% bovine casein and 1.0% human serum albumin.
The mark [2] stands for this setting: cAMP, 37° C., 0.1% bovine casein (no human serum albumin).
Setting [3] is: 0.1% bovine casein and 1.0% human serum albumin, 37° C.
Where [4] appears, read: HEK293, 0.1% bovine casein and 1.0% human serum albumin, 37° C.
[5] abbreviates: cAMP, incubated at 37° C., 0.1% bovine casein (no human serum albumin).

SMILES strings stand for the structures. Where two headings read alike, the source gives them in different places.

This passage reports Emax and EC50 results from patent US20230265151A1, “GIP/GLP1 CO-AGONIST COMPOUNDS” (priority 2020, published 2023).

hGLP-1R, sequence (P43220 24-463): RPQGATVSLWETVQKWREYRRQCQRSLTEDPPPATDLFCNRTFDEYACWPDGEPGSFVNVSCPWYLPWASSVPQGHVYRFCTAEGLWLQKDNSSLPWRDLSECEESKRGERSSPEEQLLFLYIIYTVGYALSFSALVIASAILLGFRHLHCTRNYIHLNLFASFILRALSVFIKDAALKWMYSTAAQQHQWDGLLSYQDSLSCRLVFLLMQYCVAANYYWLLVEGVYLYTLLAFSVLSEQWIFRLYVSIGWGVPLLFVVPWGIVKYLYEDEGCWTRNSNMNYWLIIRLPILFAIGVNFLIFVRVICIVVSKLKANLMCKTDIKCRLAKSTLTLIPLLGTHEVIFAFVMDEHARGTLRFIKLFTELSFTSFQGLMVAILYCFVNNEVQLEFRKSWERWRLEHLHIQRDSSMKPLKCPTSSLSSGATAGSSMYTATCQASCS
T2 sequence (P47871 26-477): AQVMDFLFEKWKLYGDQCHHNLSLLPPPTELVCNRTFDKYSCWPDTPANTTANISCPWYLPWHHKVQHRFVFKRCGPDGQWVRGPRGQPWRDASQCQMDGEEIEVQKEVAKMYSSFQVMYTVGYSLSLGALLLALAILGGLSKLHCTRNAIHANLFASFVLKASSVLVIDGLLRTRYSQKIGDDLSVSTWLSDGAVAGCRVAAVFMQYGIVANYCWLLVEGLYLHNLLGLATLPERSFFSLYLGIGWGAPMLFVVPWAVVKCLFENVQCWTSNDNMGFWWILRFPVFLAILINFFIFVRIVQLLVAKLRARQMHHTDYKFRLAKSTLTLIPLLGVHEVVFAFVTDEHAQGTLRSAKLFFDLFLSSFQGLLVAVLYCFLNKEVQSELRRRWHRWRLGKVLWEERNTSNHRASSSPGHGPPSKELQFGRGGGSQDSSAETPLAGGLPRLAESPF

With `CC[C@H](C)[C@H](NC(=O)[C@H](CCCN)NC(=O)[C@H](CC(=O)O)NC(=O)[C@H](CC(C)C)NC(=O)[C@](C)(CC(C)C)NC(=O)[C@@H](NC(=O)C(C)(C)NC(=O)[C@H](Cc1ccc(O)cc1)NC(=O)[C@H](CC(=O)O)NC(=O)[C@H](CO)NC(=O)[C@@H](NC(=O)[C@](C)(Cc1ccccc1F)NC(=O)[C@@H](NC(=O)CNC(=O)[C@H](CCC(=O)O)NC(=O)C(C)(C)NC(=O)[C@@H](N)Cc1ccc(O)cc1)[C@@H](C)O)[C@@H](C)O)[C@@H](C)CC)C(=O)N[C@@H](C)C(=O)N[C@@H](CCC(N)=O)C(=O)NC(C)(C)C(=O)N[C@@H](CCC(=O)O)C(=O)N[C@@H](Cc1ccccc1)C(=O)N[C@H](C(=O)N[C@@H](CCCCNC(=O)COCCOCCNC(=O)COCCOCCNC(=O)COCCOCCNC(=O)CC[C@H](NC(=O)CCCCCCCCCCCCC(=O)O)C(=O)O)C(=O)N[C@@](C)(Cc1ccc(O)cc1)C(=O)N[C@@H](CC(C)C)C(=O)N[C@H](C(=O)N[C@@H](CCCCNC(=O)COCCOCCNC(=O)COCCOCCNC(=O)COCCOCCNC(=O)CC[C@H](NC(=O)CCCCCCCCCCCCC(=O)O)C(=O)O)C(=O)NCC(=O)NCC(=O)N1CCC[C@H]1C(=O)N[C@@H](CO)C(=O)N[C@@H](CO)C(=O)NCC(=O)N[C@@H](C)C(=O)N1CCC[C@H]1C(=O)N1CCC[C@H]1C(=O)N1CCC[C@H]1C(=O)N[C@@H](CO)C(N)=O)[C@@H](C)CC)[C@@H](C)CC` [Example 343], the maximal effect (Emax) (in general, the maximal effect, on the per cent scale that the assay sets) at hGIPR (setting [1]) turned out to be 90.2%; on hGIPR (HEK293, cAMP, 37° C., 0.1% bovine casein, arithmetic mean) it was 98.8%; on hGLP-1R (setting [1]), 98.2%. The EC50 – broadly, the concentration at which the effect is half-maximal – at hGIPR (setting [2]) is 0.0111 nM; on hGLP-1R (setting [2]), 0.275 nM; at hGCGR (cAMP, 37° C., 0.1% bovine casein (no human serum albumin), geometric mean), over 9950 nM; at hGCGR (cAMP, 37° C., 0.1% bovine casein and 1.0% human serum albumin, geometric mean (SEM, n)) it was over 9950 nM.
For the compound `CC[C@H](C)[C@H](NC(=O)[C@H](CC(C)C)NC(=O)[C@](C)(Cc1ccc(O)cc1)NC(=O)[C@@H](CCC(=O)O)NC(=O)[C@@H](NC(=O)[C@H](Cc1ccccc1)NC(=O)[C@H](CCC(=O)O)NC(=O)C(C)(C)NC(=O)[C@H](CCC(N)=O)NC(=O)[C@H](C)NC(=O)[C@H](CCCCNC(=O)COCCOCCNC(=O)COCCOCCNC(=O)CC[C@H](NC(=O)CCCCCCCCCCCCC(=O)O)C(=O)O)NC(=O)[C@H](CCCN)NC(=O)[C@H](CC(=O)O)NC(=O)[C@H](CC(C)C)NC(=O)[C@](C)(CC(C)C)NC(=O)[C@@H](NC(=O)[C@H](CO)NC(=O)[C@H](Cc1ccncc1)NC(=O)[C@H](CC(=O)O)NC(=O)[C@H](CO)NC(=O)[C@@H](NC(=O)[C@](C)(Cc1ccccc1F)NC(=O)[C@@H](NC(=O)CNC(=O)[C@H](CCC(=O)O)NC(=O)C(C)(C)NC(=O)[C@@H](N)Cc1ccc(O)cc1)[C@@H](C)O)[C@@H](C)O)[C@@H](C)CC)[C@@H](C)CC)C(=O)N[C@@H](CCCN)C(=O)NCC(=O)NCC(=O)N[C@@H](CCCCNC(=O)COCCOCCNC(=O)COCCOCCNC(=O)CC[C@H](NC(=O)CCCCCCCCCCCCC(=O)O)C(=O)O)C(=O)N[C@@H](CO)C(=O)N[C@@H](CO)C(=O)NCC(=O)N[C@@H](C)C(=O)N1CCC[C@H]1C(=O)N1CCC[C@H]1C(=O)N1CCC[C@H]1C(=O)N[C@@H](CO)C(N)=O` [Example 151], the EC50 at hGIPR (setting [3]) is 0.306 nM; on hGIPR (setting [5]) it was 0.0197 nM; at hGLP-1R (setting [3]), 17.3 nM; at hGLP-1R (setting [5]), 0.546 nM; on hGCGR (0.1% bovine casein and 1.0% human serum albumin, 37° C., geometric mean), over 9950 nM; on hGCGR (cAMP, incubated at 37° C., 0.1% bovine casein (no human serum albumin), geometric mean) it was over 9950 nM. For the same compound, the Emax worked out at 87.5 ± 3.78% at hGIPR (setting [4]) and 112 ± 8.42% on hGLP-1R (setting [4]).
